Experimental data published in article PMC10467108, “Of Seven New K^+ Channel Inhibitor Peptides of Centruroides bonito, α-KTx 2.24 Has a Picomolar Affinity for Kv1.2” (Toxins, 2023).
Where a SMILES comes first, the peptide text is derived from it. Bridges are numbered along the chain shown (N, C = ends).

What was measured:
Type in all cases: cell-based
hKv1.1 = target: T1, hKv1.1 (Homo sapiens, UniProt Q09470); experiment: Whole-cell patch-clamp of Kv1.1 currents in transiently transfected CHO cells
T1 construct: host or cells: CHO cells, transient transfection (Lipofectamine 2000)
T1 sequence (Q09470 whole entry): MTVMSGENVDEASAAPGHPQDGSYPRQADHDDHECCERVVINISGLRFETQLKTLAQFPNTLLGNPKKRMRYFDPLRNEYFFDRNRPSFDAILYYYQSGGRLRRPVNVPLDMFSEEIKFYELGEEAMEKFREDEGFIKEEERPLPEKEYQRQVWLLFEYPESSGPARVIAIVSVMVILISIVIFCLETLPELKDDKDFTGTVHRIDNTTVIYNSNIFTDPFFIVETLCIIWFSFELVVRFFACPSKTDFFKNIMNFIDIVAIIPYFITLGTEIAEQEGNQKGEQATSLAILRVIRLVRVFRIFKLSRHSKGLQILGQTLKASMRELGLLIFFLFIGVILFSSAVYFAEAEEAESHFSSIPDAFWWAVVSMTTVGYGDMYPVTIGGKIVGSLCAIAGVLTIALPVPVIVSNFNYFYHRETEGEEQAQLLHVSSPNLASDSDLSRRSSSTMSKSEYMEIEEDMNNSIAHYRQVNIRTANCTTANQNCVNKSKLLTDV
Method: (§1) Macroscopic Kv1.1 and Kv1.2 currents were measured in transiently transfected CHO cells. For Kv1.3 current recording, human T lymphocytes were activated by Phytohemagglutinin A (PHA) to increase Kv1.3 channel expression, and micro-pipettes were filled with Ca^2+-free solution to prevent KCa3.1 channel activation. K^+ currents were evoked by applying 15-ms-long depolarization pulses to +50 mV from a holding potential of −120 mV except for Kv1.2, as it has highly variable activation kinetics; therefore, 15–500 ms-long pulses were applied to maximize the open probability of Kv1.2 channel. CboK peptide toxins were dissolved in a freshly prepared extracellular solution and applied to the whole-cell patch-clamped cells using a micro perfusion system at 200 μL/min flow rate.
(§2) CHO cells were transiently transfected by using Lipofectamine 2000 kit (Invitrogen, Carlsbad, CA, USA), as per the manufacturer’s protocol with vector pCMV6-AC-GFP (cat# RG211000 and RC222200; OriGene Technologies, Rockville, MD, USA) encoding hKv1.1 (hKCNA1 gene) or hKv1.2 (hKCNA2 gene) ion channels. Cells were grown under standard conditions in an incubator at 37 °C and 5% CO2 for 24 h. GFP-positive transfected cells were identified by utilizing a Nikon TMS fluorescence microscope (Nikon, Tokyo, Japan) using bandpass filters of 455–495 nm and 515–555 nm for excitation and emission, respectively.
(§3) The patch-clamp technique was used for measuring whole-cell currents in voltage-clamped mode using standard protocols. Electrophysiological recordings were acquired by using Multiclamp 700B amplifier connected to a personnel computer with an Axon Digidata1440 digitizer (Molecular Devices, Sunnyvale, CA, USA). Pipettes were pulled from GC150F-15 borosilicate capillaries (Harvard Apparatus, Kent, UK) having 3−5 MΩ tip resistance in the bath solution. All current recordings were carried out at room temperature (20−25 °C) and only those currents were recorded and subjected to analyses when the leak current at holding potential was <5% of peak current at the test potential. Current traces were lowpass-filtered by utilizing the built-in analog four-pole Bessel filters of the amplifiers and were sampled at 20 kHz which is at least twice the filter cut-off frequency. A gravity-driven perfusion system was used to perfuse the cells with control and test solutions and excess fluid was removed continuously through vacuum suction. The extracellular solution (bath solution) contained 145 mM NaCl, 5.5 mM glucose, 5 mM KCl, 2.5 mM CaCl2, 1 mM MgCl2, and 10 mM HEPES, having pH of 7.35 and an osmolarity between 302 and 308 mOsM/L. Toxins were dissolved in bath solution at different molar concentrations and supplemented with 0.1 mg/mL of bovine serum albumin BSA (Sigma-Aldrich, Budapest, Hungary). The intracellular solution (pipette filling) was comprised of 140 mM KF, 2 mM MgCl2, 1 mM CaCl2, 10 mM HEPES, and 11 mM EGTA, with a pH of 7.22 and an osmolarity of ~295 mOsM/L.
(§4) Generally, to evoke the Kv1.xcurrents, 15-ms-long depolarization pulses to +50 mV from a holding potential of −120 mV were applied, and the current traces were recorded after every 15 s. However, in the case of Kv1.2, due to its variable activation kinetics, the duration of the depolarization pulse was set between 15 and 500 ms to attain the saturated peak current.

hKv1.2 = target: T2, hKv1.2 (Homo sapiens, UniProt P16389); experiment: Whole-cell patch-clamp of Kv1.2 currents in transiently transfected CHO cells; settings: Hill fit of RCF vs toxin concentration, n ≥ 3
T2 construct: GFP (C); host or cells: CHO cells, transient transfection (Lipofectamine 2000)
T2 sequence (P16389 whole entry): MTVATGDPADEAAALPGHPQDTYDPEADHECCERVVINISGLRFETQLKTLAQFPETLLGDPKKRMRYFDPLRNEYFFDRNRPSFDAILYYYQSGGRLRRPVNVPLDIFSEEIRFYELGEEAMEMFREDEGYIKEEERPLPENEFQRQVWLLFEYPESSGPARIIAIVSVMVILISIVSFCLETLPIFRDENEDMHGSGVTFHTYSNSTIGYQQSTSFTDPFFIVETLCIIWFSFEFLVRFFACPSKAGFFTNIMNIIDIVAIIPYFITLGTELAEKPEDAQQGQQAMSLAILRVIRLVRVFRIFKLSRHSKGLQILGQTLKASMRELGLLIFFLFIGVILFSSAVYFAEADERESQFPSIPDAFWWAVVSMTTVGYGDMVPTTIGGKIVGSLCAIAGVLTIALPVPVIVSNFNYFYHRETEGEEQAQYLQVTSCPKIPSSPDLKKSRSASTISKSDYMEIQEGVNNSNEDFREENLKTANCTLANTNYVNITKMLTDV
Method: as §1, §2, §3, §4

Kv1.3 [1] = target: T3, Kv1.3 (Homo sapiens, UniProt P22001); experiment: Whole-cell patch-clamp of Kv1.3 currents in PHA-activated human T lymphocytes
T3 construct: endogenous in cells
T3 sequence (P22001 whole entry): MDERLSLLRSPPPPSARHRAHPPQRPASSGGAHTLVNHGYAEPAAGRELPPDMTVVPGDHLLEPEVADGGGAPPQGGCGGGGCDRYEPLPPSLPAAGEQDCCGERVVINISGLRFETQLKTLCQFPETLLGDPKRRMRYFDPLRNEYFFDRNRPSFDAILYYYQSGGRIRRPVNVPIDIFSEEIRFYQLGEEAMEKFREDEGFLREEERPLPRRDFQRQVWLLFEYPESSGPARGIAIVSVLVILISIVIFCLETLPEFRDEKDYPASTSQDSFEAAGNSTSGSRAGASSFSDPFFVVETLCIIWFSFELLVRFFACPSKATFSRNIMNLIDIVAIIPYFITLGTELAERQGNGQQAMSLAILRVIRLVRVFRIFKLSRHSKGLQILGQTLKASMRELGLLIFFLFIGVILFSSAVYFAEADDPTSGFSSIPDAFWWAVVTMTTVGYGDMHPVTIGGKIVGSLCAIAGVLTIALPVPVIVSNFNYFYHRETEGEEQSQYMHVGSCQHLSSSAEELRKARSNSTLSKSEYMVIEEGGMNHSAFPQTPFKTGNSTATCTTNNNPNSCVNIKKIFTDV
Method: as §1
Isochronal RCF data points obtained this way (isochronal RCF = I4ms/I4ms,0 where I4ms,0 and I4ms are the currents at 4 ms time point in the absence and presence of CboK peptides, respectively) at different toxin concentrations were fitted with the Hill equation to obtain concentration–response curves as shown in Figure 6H.
Human peripheral venous blood was acquired from anonymous healthy volunteers from the blood bank. Blood samples were collected by having approval from the Ethical Committee of the Hungarian Medical Research Council (36255-6/2017/EKU). PBMCs were separated by Histopaque 1077 (Sigma-Aldrich, Budapest, Hungary) separation technique, and isolated cells, at the density of 5 × 10^5 cells, were cultured in RPMI 1640 media (Gibco, Grand Island, NY, USA) supplemented with 10% FBS (Sigma-Aldrich, Budapest, Hungary), 2 mM L-glutamine, […], and […] penicillin in a humidified incubator at 37 °C and 5% CO2 for 3–6 days. A measure of 2, 5, or 10 μg/mL of Phytohemagglutinin A (PHA) (Sigma-Aldrich, Budapest, Hungary) was added in cultured cells to activate the PBMCs and upregulate the Kv1.3 expression.
as §3, with “suction.” for “suction. The extracellular solution (bath solution) contained 145 mM NaCl, 5.5 mM glucose, 5 mM KCl, 2.5 mM CaCl2, 1 mM MgCl2, and 10 mM HEPES, having pH of 7.35 and an osmolarity between 302 and 308 mOsM/L. Toxins were dissolved in bath solution at different molar concentrations and supplemented with 0.1 mg/mL of bovine serum albumin BSA (Sigma-Aldrich, Budapest, Hungary). The intracellular solution (pipette filling) was comprised of 140 mM KF, 2 mM MgCl2, 1 mM CaCl2, 10 mM HEPES, and 11 mM EGTA, with a pH of 7.22 and an osmolarity of ~295 mOsM/L.”

Kv1.3 [2] = target: T3, Kv1.3; experiment: as above; settings: 1 µM toxin, end of 15-ms pulse to 0 mV (Figure 6E)

`CC[C@H](C)[C@@H]1NC(=O)[C@@H]2CSSC[C@H](NC(=O)[C@@H](NC(=O)[C@@H](N)[C@@H](C)O)C(C)C)C(=O)N[C@@H](C(C)C)C(=O)N[C@@H](Cc3ccc(O)cc3)C(=O)N[C@@H](CCCNC(=N)N)C(=O)N[C@@H]([C@@H](C)O)C(=O)N[C@H]3CSSC[C@H](NC(=O)[C@H](C)NC(=O)[C@H](CC(N)=O)NC(=O)[C@H](CC(N)=O)NC1=O)C(=O)N[C@@H](CCCCN)C(=O)N[C@H](C(=O)N[C@@H](Cc1ccc(O)cc1)C(=O)N1CCC[C@H]1C(=O)N[C@@H](Cc1ccc(O)cc1)C(=O)O)CSSC[C@H](NC(=O)[C@H](CC(=O)O)NC(=O)[C@H](CCCCN)NC(=O)[C@H](CC(=O)O)NC3=O)C(=O)N[C@@H](CCCCN)C(=O)N[C@@H](CCCNC(=N)N)C(=O)N[C@@H](CCCNC(=N)N)C(=O)NCC(=O)N[C@@H](Cc1ccc(O)cc1)C(=O)N[C@@H](CCCNC(=N)N)C(=O)N[C@@H](CO)C(=O)NCC(=O)N[C@@H](CCCCN)C(=O)N2` [CboK2] (H-TVCVYRTCDKDCKRRGYRSGKCINNACKCYPY-OH; disulfide 3-22, 8-27, 12-29) was tested, and the “effect on Kv1.1 currents” value (hKv1.1; 100 nM toxin) was “did not block”, the Kd (hKv1.1; this study, screened at 100 nM, read-out: Kd Values Kv1.1 (symbol)) was over 100 nM and the Kd (hKv1.2; cumulative application, equilibrium block, pulses to +50 mV from -120 mV, read-out: Kd for Kv1.2) was 0.763 nM. The “Hill coefficient H, Kv1.2 block” value (hKv1.2) was 1.5, the “remaining current fraction (RCF) of Kv1.3 at +50 mV” value (Kv1.3 [1]; 1 µM toxin, end of 15-ms pulse to +50 mV (Figure 6C)) was ~ 0.34 and the “Hill coefficient H, Kv1.3 block” value (Kv1.3 [1]; Hill fit of isochronal RCF (4 ms), n ≥ 3) was 0.8. The Kd (Kv1.3 [1]; Hill fit of isochronal RCF (current at 4 ms), 15-ms pulses to +50 mV from -120 mV, n ≥ 3, read-out: Kd for Kv1.3) was 171 nM and the “remaining current fraction (RCF) of Kv1.3 at 0 mV” value (Kv1.3 [2]) was ~ 0.23.
